From publication PMC8185074, “Anchor extension: a structure-guided approach to design cyclic peptides targeting enzyme active sites” (Nature Communications, 2021)
Peptide text beside a SMILES is read from it.

Tests used:
HDAC2 = target: T1, HDAC2 (Homo sapiens, UniProt Q92769); experiment: HDAC2 inhibition, full IC50 measurement (Reaction Biology; fluorogenic p53 peptide RHKK(Ac)AMC); assay type: biochemical
T1 construct: purchased Reaction Biology Corporation (assay run by the CRO)
Method: (§1) The assay was performed using 50 μM fluorogenic peptide from p53 residues 379-382 [RHKK(Ac)AMC] in a base reaction buffer of 50 mM Tris-HCl at pH 8.0, 137 mM NaCl, 2.7 mM KCl, 1 mM MgCl2, and freshly added 1 mg/ml BSA and 1% DMSO. Peptides were first dissolved in DMSO and then added to the reaction mixture with the enzyme using acoustic technique, enough to reach the desired concentration for that assay point. Peptide concentrations were calculated based on mass of lyophilized peptide and its molecular weight. The substrate was then added and incubated for 1 hour at 30 °C in a sealed container. After the incubation, developer was added to stop the reaction and develop color. Kinetic measurements were then performed for 20 min with Envision with 5 min intervals (Ex/Em = 360/460 nm). The endpoint after plateau was taken for IC50 measurement.
(§2) In cases where duplicate measures are used, average data is reported in the main text or Supplementary Tables.

HDAC6 = target: T2, HDAC6 (Homo sapiens, UniProt Q9UBN7); experiment: HDAC6 inhibition, full IC50 measurement (Reaction Biology; fluorogenic p53 peptide RHKK(Ac)AMC); assay type: biochemical
T2 construct: purchased Reaction Biology Corporation (assay run by the CRO)
T2 sequence (Q9UBN7 1-1215): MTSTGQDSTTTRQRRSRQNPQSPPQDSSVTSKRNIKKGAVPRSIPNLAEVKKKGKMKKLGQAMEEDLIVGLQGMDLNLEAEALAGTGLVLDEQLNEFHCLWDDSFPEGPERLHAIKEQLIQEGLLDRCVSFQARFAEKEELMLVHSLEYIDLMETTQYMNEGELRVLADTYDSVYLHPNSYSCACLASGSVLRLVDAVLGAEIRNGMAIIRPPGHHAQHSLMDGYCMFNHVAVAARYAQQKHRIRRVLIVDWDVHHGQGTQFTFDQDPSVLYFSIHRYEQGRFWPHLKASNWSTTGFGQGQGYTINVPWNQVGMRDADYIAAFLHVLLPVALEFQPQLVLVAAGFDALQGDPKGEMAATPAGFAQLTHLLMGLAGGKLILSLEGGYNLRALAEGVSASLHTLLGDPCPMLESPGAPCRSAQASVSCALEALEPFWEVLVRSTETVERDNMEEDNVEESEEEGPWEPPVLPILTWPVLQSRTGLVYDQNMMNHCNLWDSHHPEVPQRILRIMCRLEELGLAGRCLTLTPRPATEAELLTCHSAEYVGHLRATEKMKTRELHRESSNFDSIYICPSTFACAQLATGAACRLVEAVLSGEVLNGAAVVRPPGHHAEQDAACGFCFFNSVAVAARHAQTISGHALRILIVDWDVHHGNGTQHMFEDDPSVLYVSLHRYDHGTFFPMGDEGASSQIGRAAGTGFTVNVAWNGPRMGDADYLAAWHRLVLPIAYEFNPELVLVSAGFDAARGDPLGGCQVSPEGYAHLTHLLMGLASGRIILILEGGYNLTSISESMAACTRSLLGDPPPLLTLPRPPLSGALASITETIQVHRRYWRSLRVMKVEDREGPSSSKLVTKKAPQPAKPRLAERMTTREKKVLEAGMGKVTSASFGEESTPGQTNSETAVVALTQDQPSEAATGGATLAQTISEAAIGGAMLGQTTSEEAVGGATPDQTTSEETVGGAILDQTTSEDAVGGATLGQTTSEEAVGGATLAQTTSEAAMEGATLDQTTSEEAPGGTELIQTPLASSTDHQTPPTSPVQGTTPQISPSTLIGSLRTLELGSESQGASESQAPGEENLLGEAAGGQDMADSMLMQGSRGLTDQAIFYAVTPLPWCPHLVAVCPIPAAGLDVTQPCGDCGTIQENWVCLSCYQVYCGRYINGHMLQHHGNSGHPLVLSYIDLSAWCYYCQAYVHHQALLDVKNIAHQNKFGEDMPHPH
Method: as §1, §2

T1 sequence (Q92769 whole entry): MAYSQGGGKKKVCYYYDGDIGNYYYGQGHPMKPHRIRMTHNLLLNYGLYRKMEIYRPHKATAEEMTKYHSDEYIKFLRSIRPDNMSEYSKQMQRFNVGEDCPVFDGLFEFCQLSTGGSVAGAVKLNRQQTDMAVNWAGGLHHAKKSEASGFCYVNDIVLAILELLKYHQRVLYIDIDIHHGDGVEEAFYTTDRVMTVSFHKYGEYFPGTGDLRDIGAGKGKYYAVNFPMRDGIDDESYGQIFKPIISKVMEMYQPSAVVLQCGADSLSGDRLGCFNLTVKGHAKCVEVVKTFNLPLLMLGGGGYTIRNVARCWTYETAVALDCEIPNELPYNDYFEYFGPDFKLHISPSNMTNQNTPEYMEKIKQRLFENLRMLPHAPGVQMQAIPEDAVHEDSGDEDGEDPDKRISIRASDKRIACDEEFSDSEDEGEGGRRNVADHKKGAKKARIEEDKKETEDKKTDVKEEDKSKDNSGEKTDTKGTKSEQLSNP

## CCCC[C@H]1NC(=O)[C@H](Cc2ccccc2)NC(=O)[C@H](CCCCCS)NC(=O)[C@@H](CO)NC(=O)[C@H](CC(=O)O)NC(=O)[C@@H](CO)NC(=O)[C@@H](C)NC(=O)[C@H](CCCCN)NC1=O [des4.3.1.1, SHA-Phe-dNle-Lys-dAla-dSer-Asp-dSer] (HELM PEPTIDE1{D.[dS].[O=C([C@H](CCCCCS)N[*:1])[*:2]].F.[CCCC[C@@H](N[*:1])C(=O)[*:2]].K.[dA].[dS]}$PEPTIDE1,PEPTIDE1,1:R1-8:R2$$$V2.0)
HDAC2; Conc. 1.00E-05 M, t1
  HDAC2 activity raw data (signal): 1283086
HDAC2; Conc. 1.00E-05 M, t2
  HDAC2 activity raw data (signal): 1486401
HDAC2; Conc. 1.11E-06 M, t1
  HDAC2 activity raw data (signal): 1660902
HDAC2; Conc. 1.11E-06 M, t2
  HDAC2 activity raw data (signal): 1799195
HDAC2; Conc. 1.23E-07 M, t1
  HDAC2 activity raw data (signal): 1764651
HDAC2; Conc. 1.23E-07 M, t2
  HDAC2 activity raw data (signal): 1879798
HDAC2; Conc. 1.37E-08 M, t1
  HDAC2 activity raw data (signal): 1818162
HDAC2; Conc. 1.37E-08 M, t2
  HDAC2 activity raw data (signal): 1980324
HDAC2; Conc. 1.52E-09 M, t1
  HDAC2 activity raw data (signal): 1787655
HDAC2; Conc. 1.52E-09 M, t2
  HDAC2 activity raw data (signal): 1860263
HDAC2; Conc. 3.33E-06 M, t1
  HDAC2 activity raw data (signal): 1631295
HDAC2; Conc. 3.33E-06 M, t2
  HDAC2 activity raw data (signal): 1725891
HDAC2; Conc. 3.70E-07 M, t1
  HDAC2 activity raw data (signal): 1679365
HDAC2; Conc. 3.70E-07 M, t2
  HDAC2 activity raw data (signal): 1920676
HDAC2; Conc. 4.12E-08 M, t1
  HDAC2 activity raw data (signal): 1853084
HDAC2; Conc. 4.12E-08 M, t2
  HDAC2 activity raw data (signal): 2007168
HDAC2; Conc. 4.57E-09 M, t1
  HDAC2 activity raw data (signal): 1817065
HDAC2; Conc. 4.57E-09 M, t2
  HDAC2 activity raw data (signal): 1855125
HDAC2; Conc. 5.08E-10 M, t1
  HDAC2 activity raw data (signal): 1872757
HDAC2; Conc. 5.08E-10 M, t2
  HDAC2 activity raw data (signal): 1875796
HDAC6
  6-Selectivity: fold potency for HDAC6 over HDAC2: 31.25 fold
HDAC6; Conc. 1.00E-05 M, t1
  HDAC6 activity raw data (signal): 121881
HDAC6; Conc. 1.00E-05 M, t2
  HDAC6 activity raw data (signal): 130414
HDAC6; Conc. 1.11E-06 M, t1
  HDAC6 activity raw data (signal): 580651
HDAC6; Conc. 1.11E-06 M, t2
  HDAC6 activity raw data (signal): 615445
HDAC6; Conc. 1.23E-07 M, t1
  HDAC6 activity raw data (signal): 1294999
HDAC6; Conc. 1.23E-07 M, t2
  HDAC6 activity raw data (signal): 1440536
HDAC6; Conc. 1.37E-08 M, t1
  HDAC6 activity raw data (signal): 1520011
HDAC6; Conc. 1.37E-08 M, t2
  HDAC6 activity raw data (signal): 1756812
HDAC6; Conc. 1.52E-09 M, t1
  HDAC6 activity raw data (signal): 1628369
HDAC6; Conc. 1.52E-09 M, t2
  HDAC6 activity raw data (signal): 1677368
HDAC6; Conc. 3.33E-06 M, t1
  HDAC6 activity raw data (signal): 268413
HDAC6; Conc. 3.33E-06 M, t2
  HDAC6 activity raw data (signal): 332099
HDAC6; Conc. 3.70E-07 M, t1
  HDAC6 activity raw data (signal): 971918
HDAC6; Conc. 3.70E-07 M, t2
  HDAC6 activity raw data (signal): 981413
HDAC6; Conc. 4.12E-08 M, t1
  HDAC6 activity raw data (signal): 1459081
HDAC6; Conc. 4.12E-08 M, t2
  HDAC6 activity raw data (signal): 1648611
HDAC6; Conc. 4.57E-09 M, t1
  HDAC6 activity raw data (signal): 1570327
HDAC6; Conc. 4.57E-09 M, t2
  HDAC6 activity raw data (signal): 1728944
HDAC6; Conc. 5.08E-10 M, t1
  HDAC6 activity raw data (signal): 1620579
HDAC6; Conc. 5.08E-10 M, t2
  HDAC6 activity raw data (signal): 1733616

## CCCC[C@H]1NC(=O)[C@H](Cc2ccccc2)NC(=O)[C@H](CCCCCS)NC(=O)[C@@H](CCCNC(=N)N)NC(=O)[C@H](C)NC(=O)[C@@H](CO)NC(=O)[C@@H](C)NC(=O)[C@H](CCCCN)NC1=O [des4.3.1.3, SHA-Phe-dNle-Lys-dAla-dSer-Ala-dArg] (HELM PEPTIDE1{A.[dR].[O=C([C@H](CCCCCS)N[*:1])[*:2]].F.[CCCC[C@@H](N[*:1])C(=O)[*:2]].K.[dA].[dS]}$PEPTIDE1,PEPTIDE1,1:R1-8:R2$$$V2.0)
HDAC2; Conc. 1.00E-05 M, t1
  HDAC2 activity raw data (signal): 193929
HDAC2; Conc. 1.00E-05 M, t2
  HDAC2 activity raw data (signal): 207672
HDAC2; Conc. 1.11E-06 M, t1
  HDAC2 activity raw data (signal): 922315
HDAC2; Conc. 1.11E-06 M, t2
  HDAC2 activity raw data (signal): 983057
HDAC2; Conc. 1.23E-07 M, t1
  HDAC2 activity raw data (signal): 1473586
HDAC2; Conc. 1.23E-07 M, t2
  HDAC2 activity raw data (signal): 1600746
HDAC2; Conc. 1.37E-08 M, t1
  HDAC2 activity raw data (signal): 1736023
HDAC2; Conc. 1.37E-08 M, t2
  HDAC2 activity raw data (signal): 1721378
HDAC2; Conc. 1.52E-09 M, t1
  HDAC2 activity raw data (signal): 1807312
HDAC2; Conc. 1.52E-09 M, t2
  HDAC2 activity raw data (signal): 1809308
HDAC2; Conc. 3.33E-06 M, t1
  HDAC2 activity raw data (signal): 507679
HDAC2; Conc. 3.33E-06 M, t2
  HDAC2 activity raw data (signal): 555133
HDAC2; Conc. 3.70E-07 M, t1
  HDAC2 activity raw data (signal): 1323328
HDAC2; Conc. 3.70E-07 M, t2
  HDAC2 activity raw data (signal): 1396903
HDAC2; Conc. 4.12E-08 M, t1
  HDAC2 activity raw data (signal): 1569368
HDAC2; Conc. 4.12E-08 M, t2
  HDAC2 activity raw data (signal): 1738468
HDAC2; Conc. 4.57E-09 M, t1
  HDAC2 activity raw data (signal): 1706591
HDAC2; Conc. 4.57E-09 M, t2
  HDAC2 activity raw data (signal): 1632561
HDAC2; Conc. 5.08E-10 M, t1
  HDAC2 activity raw data (signal): 1698338
HDAC2; Conc. 5.08E-10 M, t2
  HDAC2 activity raw data (signal): 1730008
HDAC6
  6-Selectivity: fold potency for HDAC6 over HDAC2: 140 fold
HDAC6; Conc. 1.00E-05 M, t1
  HDAC6 activity raw data (signal): -1435
HDAC6; Conc. 1.00E-05 M, t2
  HDAC6 activity raw data (signal): 8169
HDAC6; Conc. 1.11E-06 M, t1
  HDAC6 activity raw data (signal): 31133
HDAC6; Conc. 1.11E-06 M, t2
  HDAC6 activity raw data (signal): 32571
HDAC6; Conc. 1.23E-07 M, t1
  HDAC6 activity raw data (signal): 145819
HDAC6; Conc. 1.23E-07 M, t2
  HDAC6 activity raw data (signal): 156860
HDAC6; Conc. 1.37E-08 M, t1
  HDAC6 activity raw data (signal): 703698
HDAC6; Conc. 1.37E-08 M, t2
  HDAC6 activity raw data (signal): 730719
HDAC6; Conc. 1.52E-09 M, t1
  HDAC6 activity raw data (signal): 1278425
HDAC6; Conc. 1.52E-09 M, t2
  HDAC6 activity raw data (signal): 1354635
HDAC6; Conc. 3.33E-06 M, t1
  HDAC6 activity raw data (signal): -1405
HDAC6; Conc. 3.33E-06 M, t2
  HDAC6 activity raw data (signal): 24989
HDAC6; Conc. 3.70E-07 M, t1
  HDAC6 activity raw data (signal): 60632
HDAC6; Conc. 3.70E-07 M, t2
  HDAC6 activity raw data (signal): 66340
HDAC6; Conc. 4.12E-08 M, t1
  HDAC6 activity raw data (signal): 363100
HDAC6; Conc. 4.12E-08 M, t2
  HDAC6 activity raw data (signal): 336992
HDAC6; Conc. 4.57E-09 M, t1
  HDAC6 activity raw data (signal): 1071704
HDAC6; Conc. 4.57E-09 M, t2
  HDAC6 activity raw data (signal): 1051810
HDAC6; Conc. 5.08E-10 M, t1
  HDAC6 activity raw data (signal): 1597632
HDAC6; Conc. 5.08E-10 M, t2
  HDAC6 activity raw data (signal): 1554939
